From patent US20040010001A1, “Methods and compositions for modulating cell proliferation and cell death” (priority 1999, published 2004)
Where two headings read alike, the source gives them in different places.

Tested on: Human prostate PC3 tumor cells
Test: aFGF/bFGF-induced resistance and reversal by suramin, sulforhodamine B assay
Assay type: cell-based
Procedure: The experimental conditions are described briefly below. […] Cell number was measured using the sulforhodamine B assay which measures the total protein concentration. […] The FGF-induced resistance was dependent on the FGF concentrations, with a higher resistance at higher FGF concentrations.

[1] = no suramin, relative to control
[2] = read-out: IC50, Control (drug treatment only, without FGF treatment), No suramin, drug 96 hours
[3] = read-out: IC50, Control (without FGF treatment), Suramin, 15 μM, drug 96 hours with 15 μM suramin
[4] = read-out: IC50, aFGF 0.3 ng/ml + bFGF 1 ng/ml, No suramin, FGF pretreatment 96 hours, drug 96 hours
[5] = read-out: IC50, aFGF 0.3 ng/ml + bFGF 1 ng/ml, With suramin, FGF pretreatment 96 hours, drug 96 hours with 15 micromolar suramin
[6] = read-out: IC50, aFGF 1 ng/ml + bFGF 3 ng/ml, No suramin, FGF pretreatment 96 hours, drug 96 hours
[7] = read-out: IC50, aFGF 1 ng/ml + bFGF 3 ng/ml, With suramin, FGF pretreatment 96 hours, drug 96 hours with 15 micromolar suramin
[8] = Homo sapiens, read-out: IC50, Control (drug treatment only, without FGF treatment), No suramin, drug 96 hours
[9] = Homo sapiens, read-out: IC50, aFGF 0.3 ng/ml + bFGF 1 ng/ml, No suramin, FGF pretreatment 96 hours, drug 96 hours
[10] = Homo sapiens, read-out: IC50, aFGF 1 ng/ml + bFGF 3 ng/ml, No suramin, FGF pretreatment 96 hours, drug 96 hours

Row | IC50 [3] [µM] | IC50 [5] [µM] | IC50 [7] [µM] | IC50 [8] [µM] | IC50 [9] [µM] | IC50 [10] [µM] | Structure (SMILES) | Resistance, Folds, aFGF 0.3 ng/ml + bFGF 1 ng/ml [1] [Folds] | Resistance, Folds, aFGF 1 ng/ml + bFGF 3 ng/ml [1] [Folds] | IC50 [2] [µM] | IC50 [4] [µM] | IC50 [6] [µM] | Resistance, Folds, aFGF 0.3 ng/ml + bFGF 1 ng/ml [Folds] | Resistance, Folds, aFGF 1 ng/ml + bFGF 3 ng/ml [Folds] | IC50 (Homo sapiens, 96 h, read-out: IC50, Control (drug treatment only, without FGF treatment), No suramin) [µM] | IC50 (Homo sapiens, 96 h, read-out: IC50, aFGF 0.3 ng/ml + bFGF 1 ng/ml, No suramin) [µM] | IC50 (Homo sapiens, 96 h, read-out: IC50, aFGF 1 ng/ml + bFGF 3 ng/ml, No suramin) [µM] | IC50 (read-out: IC50, Control (without FGF treatment), Suramin, 15 μM) [µM] | IC50 (read-out: IC50, aFGF 0.3 ng/ml + bFGF 1 ng/ml, With suramin) [µM] | IC50 (read-out: IC50, aFGF 1 ng/ml + bFGF 3 ng/ml, With suramin) [µM]
1 | 6.94 | 6.45 | 7.32 | 6.09 | 13.8 | 26.4 | Nc1ncn([C@@H]2O[C@H](CO)[C@@H](O)[C@H]2O)c(=O)n1 [5-Azacitidine] | 2.27 | 4.33 | – | – | – | – | – | – | – | – | – | – | –
2 | – | 0.33 | 0.29 | 0.28 | 0.44 | 0.7 | O=c1[nH]c(=O)n([C@@H]2O[C@H](CO)[C@@H](O)[C@H]2O)cc1F [5-Fluorouridine] | 1.57 | 2.50 | – | – | – | – | – | – | – | – | – | – | –
3 | 0.00711 | 0.0066 | 0.00575 | 0.00588 | 0.00903 | 0.0123 | O=c1[nH]c(=O)n([C@H]2C[C@H](O)[C@@H](CO)O2)cc1F [5-fluorodoeoxyuridine] | 1.54 | 2.09 | – | – | – | – | – | – | – | – | – | – | –
4 | 22.7 | 19 | 21 | – | – | – | Nc1ncnc2c1ncn2[C@@H]1O[C@H](CO)[C@@H](O)[C@@H]1O [Adenosine arabinoside (Ara-A), Adenosine arabinoside] | 1.56 | 2.13 | 21.5 | 33.6 | 45.7 | – | – | – | – | – | – | – | –
5 | 0.68 | 0.74 | 0.67 | 0.71 | 1.32 | 1.9 | COc1cc(NS(C)(=O)=O)ccc1Nc1c2ccccc2nc2ccccc12 [Amsacrine] | 1.85 | 2.66 | – | – | – | – | – | – | – | – | – | – | –
6 | 0.36 | – | 0.34 | 0.35 | 0.46 | 0.65 | Nc1nc(Cl)nc2c1ncn2[C@H]1C[C@H](O)[C@@H](CO)O1 [Cladribine] | 1.31 | 1.86 | – | – | – | – | – | – | – | – | – | – | –
7 | 0.46 | 0.42 | 0.45 | – | – | – | Nc1ccn([C@@H]2O[C@H](CO)[C@@H](O)[C@@H]2O)c(=O)n1 [Cytarabine/Ara-C, Cytarabine] | 3.26 | 8.41 | 0.39 | 1.27 | 3.26 | – | – | – | – | – | – | – | –
8 | 0.12 | 0.122 | 0.137 | 0.102 | 0.167 | 0.282 | COc1cccc2c1C(=O)c1c(O)c3c(c(O)c1C2=O)C[C@@](O)(C(=O)CO)C[C@@H]3O[C@H]1C[C@H](N)[C@@H](O)[C@H](C)O1 [Epirubicin] | 1.63 | 2.75 | – | – | – | – | – | – | – | – | – | – | –

More lines, now with the values behind:

Row | Structure (SMILES) | IC50 [3] [µM] | IC50 [5] [µM] | IC50 [7] [µM] | IC50 [8] [µM] | IC50 [9] [µM] | IC50 [10] [µM] | Resistance, Folds, aFGF 0.3 ng/ml + bFGF 1 ng/ml [1] [Folds] | Resistance, Folds, aFGF 1 ng/ml + bFGF 3 ng/ml [1] [Folds] | IC50 [2] [µM] | IC50 [4] [µM] | IC50 [6] [µM] | Resistance, Folds, aFGF 0.3 ng/ml + bFGF 1 ng/ml [Folds] | Resistance, Folds, aFGF 1 ng/ml + bFGF 3 ng/ml [Folds] | IC50 (Homo sapiens, 96 h, read-out: IC50, Control (drug treatment only, without FGF treatment), No suramin) [µM] | IC50 (Homo sapiens, 96 h, read-out: IC50, aFGF 0.3 ng/ml + bFGF 1 ng/ml, No suramin) [µM] | IC50 (Homo sapiens, 96 h, read-out: IC50, aFGF 1 ng/ml + bFGF 3 ng/ml, No suramin) [µM] | IC50 (read-out: IC50, Control (without FGF treatment), Suramin, 15 μM) [µM] | IC50 (read-out: IC50, aFGF 0.3 ng/ml + bFGF 1 ng/ml, With suramin) [µM] | IC50 (read-out: IC50, aFGF 1 ng/ml + bFGF 3 ng/ml, With suramin) [µM]
9 | CC(O)CCC(=O)c1ccoc1 (centres unmarked) [4-Ipomeanol] | 4510 | 5040 | 3930 | – | – | – | 0.92 | 1.25 | 4110 | 3780 | 5130 | – | – | – | – | – | – | – | –
10 | Nc1ncn([C@H]2C[C@H](O)[C@@H](CO)O2)c(=O)n1 [5-Aza 2′-deoxycytidine] | 6.14 | 6.54 | 6.39 | 6.63 | 14 | 26.3 | 2.12 | 3.96 | – | – | – | – | – | – | – | – | – | – | –
11 | Sc1ncnc2nc[nH]c12 [6-Mercaptopurine] | 1.67 | 1.7 | 1.55 | 1.57 | 2.99 | 5.5 | 1.90 | 3.50 | – | – | – | – | – | – | – | – | – | – | –
12 | Nc1nc2nc[nH]c2c(=S)[nH]1 [6-Thioguanine] | 0.32 | 0.32 | 0.3 | 0.28 | 0.96 | 1.44 | 3.43 | 5.14 | – | – | – | – | – | – | – | – | – | – | –
13 | N[C@H](C(=O)O)[C@@H]1CC(Cl)=NO1 [Acivicin] | 1.28 | 1.65 | 1.63 | 1.58 | 3.34 | 5.52 | 2.11 | 3.49 | – | – | – | – | – | – | – | – | – | – | –
14 | N[C@@H](CN(O)N=O)C(=O)O [Alanosine] | 2.15 | 2.4 | 2.12 | 2.06 | 4.18 | 7.08 | 2.03 | 3.44 | – | – | – | – | – | – | – | – | – | – | –
15 | O=NN(CCCl)C(=O)NCCCl [BCNU] | 34.2 | 36.5 | 33.3 | 33.5 | 52.2 | 75.6 | 1.56 | 2.26 | – | – | – | – | – | – | – | – | – | – | –
16 | CS(=O)(=O)OCCCCOS(C)(=O)=O [Busulfan] | 89.2 | – | – | 86.2 | – | – | 1.14 | 1.48 | – | – | – | – | – | – | – | – | – | – | –
17 | N.N.O=C([O-])C1(C(=O)[O-])CCC1.[Pt+2] [Carboplatin] | 2.11 | 2.29 | 2.31 | – | – | – | 1.68 | 4.04 | 2.25 | 3.79 | 9.1 | – | – | – | – | – | – | – | –
18 | O=C(O)CCCc1ccc(N(CCCl)CCCl)cc1 [Chlorambucil] | 33.1 | 44.4 | 37.6 | 31.9 | 53.5 | 88.3 | 1.67 | 2.77 | – | – | – | – | – | – | – | – | – | – | –
19 | O=P1(N(CCCl)CCCl)NCCCO1 (centres unmarked) [Cyclophosphamide] | – | – | – | – | – | – | – | – | – | – | – | 2.18 | 3.00 | 0.51 | 1.11 | 1.53 | 0.48 | 0.57 | 0.5
20 | CN(C)/N=N/c1[nH]cnc1C(N)=O [Dacarbazine] | 37.6 | 32.4 | 39.7 | 36.6 | 53.7 | 108 | 1.47 | 2.95 | – | – | – | – | – | – | – | – | – | – | –
21 | COc1cccc2c1C(=O)c1c(O)c3c(c(O)c1C2=O)C[C@@](O)(C(C)=O)C[C@@H]3O[C@H]1C[C@H](N)[C@H](O)[C@H](C)O1 [Daunorubicin] | 0.0291 | 0.0265 | 0.0302 | 0.0295 | 0.0974 | 0.157 | 3.31 | 5.33 | – | – | – | – | – | – | – | – | – | – | –
22 | C/C=C1\NC(=O)[C@H]2CSSCC/C=C/[C@H](CC(=O)N[C@H](C(C)C)C(=O)N2)OC(=O)[C@H](C(C)C)NC1=O [Depsipeptide] | 0.00103 | 0.00116 | 0.00116 | 0.00112 | 0.00155 | 0.00216 | 1.38 | 1.93 | – | – | – | – | – | – | – | – | – | – | –
